Assay results from patent publication US6914045B2, “Glycopeptide antibiotics” (Wyeth Holdings Corporation, priority 2001, dated 2005).
≈ marks a conversion by molar mass, not a printed value.

Columns and labels:
Assay in all cases: in vitro antibacterial evaluation, MIC by broth dilution
Assay type in all cases: cell-based
Staphylococcus sp. = conditions: broth dilution, 18 hours at 35° C.
Procedure, shortened: (§1)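 MIC, the lowest antibiotic concentration preventing growth, was read across 64-0.06 μg/mL with 5×10^5 CFU/mL inoculum. Method followed NCCLS M7-A2 broth dilution using Mueller-Hinton II; Gram-positive strains covered recent methicillin-, penicillin- and/or vancomycin-resistant clinical isolates.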

Enterococcus sp. = conditions: broth dilution, 18 hours at 35° C.
Procedure, shortened: as §1

Streptococcus sp. = conditions: broth dilution, 18 hours at 35° C.
Procedure, shortened: as §1

Escherichia coli = conditions: 18 hours at 35° C.
Procedure, shortened: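 Inoculum 5×10^5 CFU/mL; concentrations 64 to 0.06 μg/mL; MIC defined as lowest inhibitory level. Conducted by broth dilution under NCCLS guidelines.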

`CC(C)CC(=O)OCC1OC(OC2C(CO)OC(Oc3ccc(CC4NC(=O)C(Cc5ccccc5)NC(=O)CNC(=O)C(CO)NC(=O)C(C(O)C5CNC(=N)N5C5OC(CO)C(O)C(O)C5O)NC(=O)C(C(O)C5CNC(=N)N5)NC4=O)cc3)C(O)C2O)C(O)C(O)C1O` (centres unmarked) [Example 283c, Cyclo[glycylphenylalanyl-O-[4-O-[6-O-(3-methylbutanoyl)-hexopyranosyl]hexopyranosyl]tyrosyl-3-(2-iminoimidazolidin-4-yl)seryl-3-(3-hexopyranosyl-2-iminoimidazolidin-4-yl)serylseryl]] was tested, and the “MIC Coagulase Negative Staphylococcus (GC 4547)” value (Staphylococcus sp.) was 16 µg/mL (≈ 11.7 µM), the “MIC Coagulase Negative Staphylococcus (GC 4548)” value (Staphylococcus sp.) was 8 µg/mL (≈ 5.86 µM) and the “MIC Coagulase Negative Staphylococcus (GC 4549)” value (Staphylococcus sp.) was 16 µg/mL (≈ 11.7 µM). For the same compound, the “MIC Coagulase Negative Staphylococcus (GC 4551)” value (Staphylococcus sp.) was 32 µg/mL (≈ 23.4 µM), the “MIC Staphylococcus aureus (ATCC 29213)” value (Staphylococcus sp.) was 32 µg/mL (≈ 23.4 µM) and the “MIC Staphylococcus aureus (GC 1131)” value (Staphylococcus sp.) was 32 µg/mL (≈ 23.4 µM). For the same compound, the “MIC Staphylococcus aureus (GC 3051)” value (Staphylococcus sp.) was 32 µg/mL (≈ 23.4 µM), the “MIC Staphylococcus aureus (GC 3053)” value (Staphylococcus sp.) was 64 µg/mL (≈ 46.9 µM) and the “MIC Staphylococcus aureus (GC 4541)” value (Staphylococcus sp.) was 32 µg/mL (≈ 23.4 µM). For the same compound, the “MIC Staphylococcus aureus (GC 4542)” value (Staphylococcus sp.) was 32 µg/mL (≈ 23.4 µM), the “MIC Staphylococcus aureus (GC 4544)” value (Staphylococcus sp.) was 32 µg/mL (≈ 23.4 µM) and the “MIC Staphylococcus aureus (GC 4545)” value (Staphylococcus sp.) was 16 µg/mL (≈ 11.7 µM). The “MIC Staphylococcus aureus-SMITH (GC 4543)” value (Staphylococcus sp.) was 16 µg/mL (≈ 11.7 µM), the “MIC Staphylococcus haemolyticus (GC 4546)” value (Staphylococcus sp.) was 16 µg/mL (≈ 11.7 µM) and the “MIC Staphylococcus aureus (ATCC 29213)” value (Staphylococcus sp.; strain ATCC 29213) was 32 µg/mL (≈ 23.4 µM). The “MIC Staphylococcus aureus (GC 1131)” value (Staphylococcus sp.; strain GC 1131) was 32 µg/mL (≈ 23.4 µM), the “MIC Staphylococcus aureus (GC 3051)” value (Staphylococcus sp.; strain GC 3051) was 32 µg/mL (≈ 23.4 µM) and the “MIC Staphylococcus aureus (GC 3053)” value (Staphylococcus sp.; strain GC 3053) was 64 µg/mL (≈ 46.9 µM). The “MIC Staphylococcus aureus (GC 4541)” value (Staphylococcus sp.; strain GC 4541) was 32 µg/mL (≈ 23.4 µM), the “MIC Staphylococcus aureus (GC 4542)” value (Staphylococcus sp.; strain GC 4542) was 32 µg/mL (≈ 23.4 µM) and the “MIC Staphylococcus aureus (GC 4544)” value (Staphylococcus sp.; strain GC 4544) was 32 µg/mL (≈ 23.4 µM). The “MIC Staphylococcus aureus (GC 4545)” value (Staphylococcus sp.; strain GC 4545) was 16 µg/mL (≈ 11.7 µM), the “MIC Staphylococcus haemolyticus (GC 4546)” value (Staphylococcus sp.; strain GC 4546) was 16 µg/mL (≈ 11.7 µM) and the “MIC Coagulase Negative Staphylococcus (GC 4547)” value (Staphylococcus sp.; strain GC 4547) was 16 µg/mL (≈ 11.7 µM). For the same compound, the “MIC Coagulase Negative Staphylococcus (GC 4548)” value (Staphylococcus sp.; strain GC 4548) was 8 µg/mL (≈ 5.86 µM), the “MIC Coagulase Negative Staphylococcus (GC 4549)” value (Staphylococcus sp.; strain GC 4549) was 16 µg/mL (≈ 11.7 µM) and the “MIC Coagulase Negative Staphylococcus (GC 4551)” value (Staphylococcus sp.; strain GC 4551) was 32 µg/mL (≈ 23.4 µM). For the same compound, the “MIC Staphylococcus aureus-SMITH (GC 4543)” value (Staphylococcus sp.; strain SMITH GC 4543) was 16 µg/mL (≈ 11.7 µM), the “MIC Enterococcus avium (GC 4558)” value (Enterococcus sp.; Enterococcus avium (GC 4558)) was 128 µg/mL (≈ 93.7 µM) and the “MIC Enterococcus faecalis (ATCC 29212)” value (Enterococcus sp.; Enterococcus faecalis (ATCC 29212)) was 128 µg/mL (≈ 93.7 µM). The “MIC Enterococcus faecalis (GC 4553)” value (Enterococcus sp.; Enterococcus faecalis (GC 4553)) was 128 µg/mL (≈ 93.7 µM), the “MIC Enterococcus faecalis (GC 4554)” value (Enterococcus sp.; Enterococcus faecalis (GC 4554)) was >128 µg/mL and the “MIC Enterococcus faecalis (GC 6189)” value (Enterococcus sp.; Enterococcus faecalis (GC 6189)) was 128 µg/mL (≈ 93.7 µM). The “MIC Enterococcus faecium (GC 2243)” value (Enterococcus sp.; Enterococcus faecium (GC 2243)) was 128 µg/mL (≈ 93.7 µM), the “MIC Enterococcus faecium (GC 4556)” value (Enterococcus sp.; Enterococcus faecium (GC 4556)) was 128 µg/mL (≈ 93.7 µM) and the “MIC Enterococcus faecium (GC 4557)” value (Enterococcus sp.; Enterococcus faecium (GC 4557)) was 16 µg/mL (≈ 11.7 µM). The “MIC Enterococcus faecalis (ATCC 29212)” value (Enterococcus sp.; strain ATCC 29212) was 128 µg/mL (≈ 93.7 µM), the “MIC Enterococcus faecalis (GC 2242)” value (Enterococcus sp.; strain GC 2242) was 128 µg/mL (≈ 93.7 µM) and the “MIC Enterococcus faecium (GC 2243)” value (Enterococcus sp.; strain GC 2243) was 128 µg/mL (≈ 93.7 µM). The “MIC Enterococcus faecalis (GC 2691)” value (Enterococcus sp.; strain GC 2691) was 128 µg/mL (≈ 93.7 µM), the “MIC Enterococcus faecalis (GC 3059)” value (Enterococcus sp.; strain GC 3059) was >128 µg/mL and the “MIC Enterococcus faecalis (GC 4552)” value (Enterococcus sp.; strain GC 4552) was 128 µg/mL (≈ 93.7 µM). For the same compound, the “MIC Enterococcus faecalis (GC 4553)” value (Enterococcus sp.; strain GC 4553) was 128 µg/mL (≈ 93.7 µM), the “MIC Enterococcus faecalis (GC 4554)” value (Enterococcus sp.; strain GC 4554) was >128 µg/mL and the “MIC Enterococcus faecium (GC 4556)” value (Enterococcus sp.; strain GC 4556) was 128 µg/mL (≈ 93.7 µM). For the same compound, the “MIC Enterococcus faecium (GC 4557)” value (Enterococcus sp.; strain GC 4557) was 16 µg/mL (≈ 11.7 µM), the “MIC Enterococcus avium (GC 4558)” value (Enterococcus sp.; strain GC 4558) was 128 µg/mL (≈ 93.7 µM) and the “MIC Enterococcus faecalis (GC 6189)” value (Enterococcus sp.; strain GC 6189) was 128 µg/mL (≈ 93.7 µM). For the same compound, the “MIC Streptococcus pneumoniae (ATCC 6301)” value (Streptococcus sp.; strain ATCC 6301) was 8 µg/mL (≈ 5.86 µM), the “MIC Streptococcus pneumoniae (GC 1894)” value (Streptococcus sp.; strain GC 1894) was 4 µg/mL (≈ 2.93 µM) and the “MIC Streptococcus pyogenes (GC 4563)” value (Streptococcus sp.; strain GC 4563) was 16 µg/mL (≈ 11.7 µM). For the same compound, the “MIC Streptococcus agalactiae (GC 4564)” value (Streptococcus sp.; strain GC 4564) was 16 µg/mL (≈ 11.7 µM), the “MIC Streptococcus pneumoniae (GC 4565)” value (Streptococcus sp.; strain GC 4565) was 8 µg/mL (≈ 5.86 µM) and the “MIC Escherichia coli (ATCC 25922)” value (Escherichia coli; Escherichia coli (ATCC 25922)) was 128 µg/mL (≈ 93.7 µM). The “MIC Escherichia coli (GC 4559)” value (Escherichia coli; Escherichia coli (GC 4559)) was 128 µg/mL (≈ 93.7 µM) and the “MIC Escherichia coli (GC 4560)” value (Escherichia coli; Escherichia coli (GC 4560)) was 8 µg/mL (≈ 5.86 µM).
